# “And” between values parts separate entries of the source, which are not always exact repeats. Equal values may be shown once.
# System: collagen-induced arthritis
# Experiment: Collagen-induced arthritis (CIA) model in rats: body weight, paw volume, clinical scores, clinical observations; for Average detailed clinical score, left hind limb: key of the grades not given here; for Average detailed clinical score, right hind limb: key of the grades not given here; for Detailed Clinical Scores: left forelimb: key of the grades not given here; for Detailed Clinical Scores: left hind limb: key of the grades not given here; for Detailed Clinical Scores: right forelimb: key of the grades not given here; for Detailed Clinical Scores: right hind limb: key of the grades not given here; for Detailed Clinical Scores: score: key of the grades not given here; for Mean overall clinical score ± SD: key of the grades not given here; for Overall clinical score: key of the grades not given here
# Conditions: for Mean animal paw volume ± SD: group mean; for Animal paw volume percent change: individual animals; for Overall clinical score: individual animals #1-8
# [1] = Day 19, 3 mg/kg, CIA rats, individual animals ID 1-8
compound,measurement,setting,value
"CNC(=O)c1[nH]c(C(=O)NC2CCC2)cc1O[C@@H](C)c1ccccc1 (stereo in doubt) [Example 101, N^5-cyclobutyl-N^2-methyl-3-(1-phenylethoxy)-1H-pyrrole-2,5-dicarboxamide]",Mean animal paw volume ± SD,"Day 19, R paw, 3 mg/kg",2.60 mL
same,Animal paw volume percent change,"Day 19, R paw, 3 mg/kg",67.68% and 117.60% and 98.86% and 76.49% and 104.98% and 107.81% and 86.14%
same,Mean animal paw volume ± SD,"Day 19, R paw, 10 mg/kg",2.02 mL
same,Animal paw volume percent change,"Day 19, R paw, 10 mg/kg",67.62% and 63.35% and 90.35% and 108.88% and 21.62%
same,Mean animal paw volume ± SD,"Day 19, R paw, 30 mg/kg",1.74 mL
same,Detailed Clinical Scores: left forelimb,[1],1 and 0
same,Detailed Clinical Scores: left hind limb,[1],4
same,Detailed Clinical Scores: right forelimb,[1],0
same,Detailed Clinical Scores: right hind limb,[1],4 and 3
same,Detailed Clinical Scores: score,[1],9 and 7
same,"Average detailed clinical score, left forelimb","Day 19, CIA rats, 3 mg/kg",1.13
same,"Average detailed clinical score, left hind limb","Day 19, CIA rats, 3 mg/kg",4.00
same,"Average detailed clinical score, right forelimb","Day 19, CIA rats, 3 mg/kg",1.00
same,"Average detailed clinical score, right hind limb","Day 19, CIA rats, 3 mg/kg",3.75
same,"Average detailed clinical score, score","Day 19, CIA rats, 3 mg/kg",9.88
same,Mean overall clinical score ± SD,"Day 19, CIA rats, 3 mg/kg",10 ± 3
same,Overall clinical score,"Day 19, CIA rats, 3 mg/kg",9 and 7 (2×) and 8 (2×) and 16 and 12 (2×)
same,"Average detailed clinical score, left forelimb","Day 19, CIA rats, 10 mg/kg",0.00
same,"Average detailed clinical score, left hind limb","Day 19, CIA rats, 10 mg/kg",2.38
same,"Average detailed clinical score, right forelimb","Day 19, CIA rats, 10 mg/kg",1.13
same,"Average detailed clinical score, right hind limb","Day 19, CIA rats, 10 mg/kg",2.88
same,"Average detailed clinical score, score","Day 19, CIA rats, 10 mg/kg",6.38
same,Mean overall clinical score ± SD,"Day 19, CIA rats, 10 mg/kg",6 ± 4
same,Overall clinical score,"Day 19, CIA rats, 10 mg/kg",7 and 6 and 12
same,"Average detailed clinical score, left forelimb","Day 19, CIA rats, 30 mg/kg",0.00
same,"Average detailed clinical score, left hind limb","Day 19, CIA rats, 30 mg/kg",1.63
same,"Average detailed clinical score, right forelimb","Day 19, CIA rats, 30 mg/kg",0.25
same,"Average detailed clinical score, right hind limb","Day 19, CIA rats, 30 mg/kg",1.75
same,"Average detailed clinical score, score","Day 19, CIA rats, 30 mg/kg",3.63
same,Mean overall clinical score ± SD,"Day 19, CIA rats, 30 mg/kg",4 ± 3
same,Mean animal paw volume ± SD,"Day 21, L paw, 3 mg/kg",2.67 mL
same,Animal paw volume percent change,"Day 21, L paw, 3 mg/kg",90.42% and 128.52% and 109.51% and 86.25% and 104.98% and 93.04% and 80.15%
same,Mean animal paw volume ± SD,"Day 21, L paw, 10 mg/kg",2.09 mL
same,Animal paw volume percent change,"Day 21, L paw, 10 mg/kg",71.48% and 60.71% and 92.61% and 105.06% and 13.03%
same,Mean animal paw volume ± SD,"Day 21, L paw, 30 mg/kg",1.82 mL
same,Mean animal paw volume ± SD,"Day 21, R paw, 3 mg/kg",2.59 mL
same,Animal paw volume percent change,"Day 21, R paw, 3 mg/kg",69.20% and 117.60% and 97.35% and 74.25% and 106.13% and 105.58% and 84.64%
same,Mean animal paw volume ± SD,"Day 21, R paw, 10 mg/kg",2.08 mL
same,Animal paw volume percent change,"Day 21, R paw, 10 mg/kg",66.90% and 62.15% and 89.58% and 106.95% and 21.62%
same,Mean animal paw volume ± SD,"Day 21, R paw, 30 mg/kg",1.79 mL
same,"Average detailed clinical score, left forelimb","Day 21, CIA rats, 3 mg/kg",1.00
same,"Average detailed clinical score, left hind limb","Day 21, CIA rats, 3 mg/kg",4.00
same,"Average detailed clinical score, right forelimb","Day 21, CIA rats, 3 mg/kg",1.00
same,"Average detailed clinical score, right hind limb","Day 21, CIA rats, 3 mg/kg",3.75
same,"Average detailed clinical score, score","Day 21, CIA rats, 3 mg/kg",9.75
same,Mean overall clinical score ± SD,"Day 21, CIA rats, 3 mg/kg",10 ± 3
same,Overall clinical score,"Day 21, CIA rats, 3 mg/kg",9 and 7 (2×) and 8 (2×) and 14 and 13 and 12
same,"Average detailed clinical score, left forelimb","Day 21, CIA rats, 10 mg/kg",0.00
same,"Average detailed clinical score, left hind limb","Day 21, CIA rats, 10 mg/kg",2.50
same,"Average detailed clinical score, right forelimb","Day 21, CIA rats, 10 mg/kg",1.25
same,"Average detailed clinical score, right hind limb","Day 21, CIA rats, 10 mg/kg",2.75
same,"Average detailed clinical score, score","Day 21, CIA rats, 10 mg/kg",6.50
same,Mean overall clinical score ± SD,"Day 21, CIA rats, 10 mg/kg",7 ± 4
same,Overall clinical score,"Day 21, CIA rats, 10 mg/kg",7 and 6 and 12 (2×)
same,"Average detailed clinical score, left forelimb","Day 21, CIA rats, 30 mg/kg",0.00
same,"Average detailed clinical score, left hind limb","Day 21, CIA rats, 30 mg/kg",1.88
same,"Average detailed clinical score, right forelimb","Day 21, CIA rats, 30 mg/kg",0.13
same,"Average detailed clinical score, right hind limb","Day 21, CIA rats, 30 mg/kg",1.63
same,"Average detailed clinical score, score","Day 21, CIA rats, 30 mg/kg",3.63
same,Mean overall clinical score ± SD,"Day 21, CIA rats, 30 mg/kg",4 ± 3
